ChEMBL document CHEMBL5241069, “A key review on oxadiazole analogs as potential methicillin-resistant Staphylococcus aureus (MRSA) activity: Structure-activity relationship studies” (Eur J Med Chem, 2021)
≈ marks a conversion by molar mass, not a printed value.

Tests used:
Staphylococcus aureus [1] = experiment: Antibacterial activity against methicillin resistant Staphylococcus aureus 42 assessed as inhibition of bacterial growth; type: functional
Staphylococcus aureus [2] = experiment: Antibacterial activity against methicillin resistant Staphylococcus aureus 128 assessed as inhibition of bacterial growth; type: functional
Staphylococcus aureus [3] = experiment: Antibacterial activity against methicillin resistant Staphylococcus aureus 181 assessed as inhibition of bacterial growth; type: functional
Staphylococcus aureus [4] = experiment: Antibacterial activity against methicillin resistant Staphylococcus aureus 747 assessed as inhibition of bacterial growth; type: functional
Staphylococcus aureus [5] = experiment: Potency index, ratio of cefepime MIC to test compound MIC for antibacterial activity against methicillin resistant Staphylococcus aureus 42 assessed as inhibition of bacterial growth; type: functional
Staphylococcus aureus [6] = experiment: Antimicrobial activity against methicillin resistant Staphylococcus aureus C5382 assessed as inhibition of cell growth in the presence of oxacillin at 1/2 times of MIC by microdilution method; type: functional
Staphylococcus aureus [7] = experiment: Antimicrobial activity against methicillin resistant Staphylococcus aureus C5380 assessed as inhibition of cell growth in the presence of oxacillin at 1/2 times of MIC by microdilution method; type: functional
Staphylococcus aureus [8] = experiment: Antimicrobial activity against methicillin resistant Staphylococcus aureus C5171 assessed as inhibition of cell growth in the presence of oxacillin at 1/2 times of MIC by microdilution method; type: functional
Staphylococcus aureus [9] = experiment: Antimicrobial activity against methicillin resistant Staphylococcus aureus C3787 assessed as inhibition of cell growth in the presence of oxacillin at 1/2 times of MIC by microdilution method; type: functional
Staphylococcus aureus [10] = experiment: Antimicrobial activity against methicillin resistant Staphylococcus aureus C3212 assessed as inhibition of cell growth in the presence of oxacillin at 1/2 times of MIC by microdilution method; type: functional
Staphylococcus aureus [11] = experiment: Antimicrobial activity against methicillin resistant Staphylococcus aureus C5294 assessed as inhibition of cell growth in the presence of oxacillin at 1/2 times of MIC by microdilution method; type: functional
Staphylococcus aureus [12] = experiment: Antimicrobial activity against methicillin resistant Staphylococcus aureus C4058 assessed as inhibition of cell growth in the presence of oxacillin at 1/2 times of MIC by microdilution method; type: functional
Staphylococcus aureus [13] = experiment: Antimicrobial activity against methicillin resistant Staphylococcus aureus C5177 assessed as inhibition of cell growth in the presence of oxacillin at 1/2 times of MIC by microdilution method; type: functional
Staphylococcus aureus [14] = experiment: Antimicrobial activity against methicillin resistant Staphylococcus aureus K118 assessed as inhibition of cell growth in the presence of oxacillin at 1/4 times of MIC by microdilution method; type: functional
Staphylococcus aureus [15] = experiment: Antimicrobial activity against methicillin resistant Staphylococcus aureus C5282 assessed as inhibition of cell growth in the presence of oxacillin at 1/4 times of MIC by microdilution method; type: functional
Staphylococcus aureus [16] = experiment: Antimicrobial activity against methicillin resistant Staphylococcus aureus C5269 assessed as inhibition of cell growth in the presence of oxacillin at 1/4 times of MIC by microdilution method; type: functional
Staphylococcus aureus [17] = experiment: Antimicrobial activity against methicillin resistant Staphylococcus aureus C5382 assessed as inhibition of cell growth in the presence of oxacillin at 1/4 times of MIC by microdilution method; type: functional
Staphylococcus aureus [18] = experiment: Antimicrobial activity against methicillin resistant Staphylococcus aureus C5380 assessed as inhibition of cell growth in the presence of oxacillin at 1/4 times of MIC by microdilution method; type: functional
Staphylococcus aureus [19] = experiment: Antimicrobial activity against methicillin resistant Staphylococcus aureus C5171 assessed as inhibition of cell growth in the presence of oxacillin at 1/4 times of MIC by microdilution method; type: functional
Staphylococcus aureus [20] = experiment: Antimicrobial activity against methicillin resistant Staphylococcus aureus C3787 assessed as inhibition of cell growth in the presence of oxacillin at 1/4 times of MIC by microdilution method; type: functional
Staphylococcus aureus [21] = experiment: Antimicrobial activity against methicillin resistant Staphylococcus aureus C3212 assessed as inhibition of cell growth in the presence of oxacillin at 1/4 times of MIC by microdilution method; type: functional
Staphylococcus aureus [22] = experiment: Antimicrobial activity against methicillin resistant Staphylococcus aureus C5294 assessed as inhibition of cell growth in the presence of oxacillin at 1/4 times of MIC by microdilution method; type: functional
Staphylococcus aureus [23] = experiment: Antimicrobial activity against methicillin resistant Staphylococcus aureus C4058 assessed as inhibition of cell growth in the presence of oxacillin at 1/4 times of MIC by microdilution method; type: functional
Staphylococcus aureus [24] = experiment: Antimicrobial activity against methicillin resistant Staphylococcus aureus C5177 assessed as inhibition of cell growth in the presence of oxacillin at 1/4 times of MIC by microdilution method; type: functional
Staphylococcus aureus [25] = experiment: Antimicrobial activity against methicillin resistant Staphylococcus aureus K118 assessed as inhibition of cell growth in the presence of oxacillin at 1/8 times of MIC by microdilution method; type: functional
Staphylococcus aureus [26] = experiment: Antimicrobial activity against methicillin resistant Staphylococcus aureus C5282 assessed as inhibition of cell growth in the presence of oxacillin at 1/8 times of MIC by microdilution method; type: functional
Staphylococcus aureus [27] = experiment: Antimicrobial activity against methicillin resistant Staphylococcus aureus C5269 assessed as inhibition of cell growth in the presence of oxacillin at 1/8 times of MIC by microdilution method; type: functional
Staphylococcus aureus [28] = experiment: Antimicrobial activity against methicillin resistant Staphylococcus aureus C5382 assessed as inhibition of cell growth in the presence of oxacillin at 1/8 times of MIC by microdilution method; type: functional
Staphylococcus aureus [29] = experiment: Antimicrobial activity against methicillin resistant Staphylococcus aureus C5380 assessed as inhibition of cell growth in the presence of oxacillin at 1/8 times of MIC by microdilution method; type: functional
Staphylococcus aureus [30] = experiment: Antimicrobial activity against methicillin resistant Staphylococcus aureus C5171 assessed as inhibition of cell growth in the presence of oxacillin at 1/8 times of MIC by microdilution method; type: functional
Staphylococcus aureus [31] = experiment: Antimicrobial activity against methicillin resistant Staphylococcus aureus C3787 assessed as inhibition of cell growth in the presence of oxacillin at 1/8 times of MIC by microdilution method; type: functional
Staphylococcus aureus [32] = experiment: Antimicrobial activity against methicillin resistant Staphylococcus aureus C3212 assessed as inhibition of cell growth in the presence of oxacillin at 1/8 times of MIC by microdilution method; type: functional
Staphylococcus aureus [33] = experiment: Antimicrobial activity against methicillin resistant Staphylococcus aureus C5294 assessed as inhibition of cell growth in the presence of oxacillin at 1/8 times of MIC by microdilution method; type: functional
Staphylococcus aureus [34] = experiment: Antimicrobial activity against methicillin resistant Staphylococcus aureus C4058 assessed as inhibition of cell growth in the presence of oxacillin at 1/8 times of MIC by microdilution method; type: functional
Staphylococcus aureus [35] = experiment: Antimicrobial activity against methicillin resistant Staphylococcus aureus C5177 assessed as inhibition of cell growth in the presence of oxacillin at 1/8 times of MIC by microdilution method; type: functional
Staphylococcus aureus [36] = experiment: Antibacterial activity against Staphylococcus aureus ATCC 29213 assessed as inhibition of bacterial growth by CLSI protocol based microdilution method; type: functional
Staphylococcus aureus [37] = experiment: Antibacterial activity against Staphylococcus aureus ATCC 27660 assessed as inhibition of bacterial growth by CLSI protocol based microdilution method; type: functional
Staphylococcus aureus [38] = experiment: Antibacterial activity against Staphylococcus aureus NRS100 (COL) assessed as inhibition of bacterial growth by CLSI protocol based microdilution method; type: functional
Staphylococcus aureus [39] = experiment: Antibacterial activity against Staphylococcus aureus NRS119 assessed as inhibition of bacterial growth by CLSI protocol based microdilution method; type: functional
Staphylococcus aureus [40] = experiment: Antibacterial activity against Staphylococcus aureus NRS120 assessed as inhibition of bacterial growth by CLSI protocol based microdilution method; type: functional
Staphylococcus aureus [41] = experiment: Antibacterial activity against vancomycin resistant Staphylococcus aureus 1 assessed as inhibition of bacterial growth by CLSI protocol based microdilution method; type: functional
Staphylococcus aureus [42] = experiment: Antibacterial activity against vancomycin resistant Staphylococcus aureus 2 assessed as inhibition of bacterial growth by CLSI protocol based microdilution method; type: functional
[43] = Oral bioavailability in ICR mouse at 50 mg/kg; type: ADME, organism-based; conditions: in vivo
[44] = Elimination half life in ICR mouse at 50 mg/kg, iv; type: ADME, organism-based; conditions: in vivo, read-out: beta t1/2 (converted)

O=c1c(Br)cnc2onc(-c3ccc(F)cc3F)n12
MIC (Staphylococcus aureus [1]): 12.4 µg/mL (≈ 37.8 µM)
MIC (Staphylococcus aureus [2]): 17.6 µg/mL (≈ 53.6 µM)
MIC (Staphylococcus aureus [3]): 29.9 µg/mL (≈ 91.1 µM)
MIC (Staphylococcus aureus [4]): 29.9 µg/mL (≈ 91.1 µM)
Ratio (Staphylococcus aureus [5]): 3

FC(F)(F)c1ccc(Oc2ccc(-c3noc(-c4ccc5[nH]ccc5c4)n3)cc2)cc1
MIC (Staphylococcus aureus [6]): ≤ 0.03 µg/mL
MIC (Staphylococcus aureus [7]): ≤ 0.03 µg/mL
MIC (Staphylococcus aureus [8]): ≤ 0.03 µg/mL
MIC (Staphylococcus aureus [9]): ≤ 0.03 µg/mL
MIC (Staphylococcus aureus [10]): ≤ 0.03 µg/mL
MIC (Staphylococcus aureus [11]): ≤ 0.03 µg/mL
MIC (Staphylococcus aureus [12]): ≤ 0.03 µg/mL
MIC (Staphylococcus aureus [13]): ≤ 0.03 µg/mL
MIC (Staphylococcus aureus [14]): ≤ 0.03 µg/mL
MIC (Staphylococcus aureus [15]): ≤ 0.03 µg/mL
MIC (Staphylococcus aureus [16]): ≤ 0.03 µg/mL
MIC (Staphylococcus aureus [17]): ≤ 0.03 µg/mL
MIC (Staphylococcus aureus [18]): ≤ 0.03 µg/mL
MIC (Staphylococcus aureus [19]): ≤ 0.03 µg/mL
MIC (Staphylococcus aureus [20]): ≤ 0.03 µg/mL
MIC (Staphylococcus aureus [21]): ≤ 0.03 µg/mL
MIC (Staphylococcus aureus [22]): ≤ 0.03 µg/mL
MIC (Staphylococcus aureus [23]): ≤ 0.03 µg/mL
MIC (Staphylococcus aureus [24]): ≤ 0.03 µg/mL
MIC (Staphylococcus aureus [25]): ≤ 0.03 µg/mL
MIC (Staphylococcus aureus [26]): ≤ 0.03 µg/mL
MIC (Staphylococcus aureus [27]): ≤ 0.03 µg/mL
MIC (Staphylococcus aureus [28]): ≤ 0.03 µg/mL
MIC (Staphylococcus aureus [29]): ≤ 0.03 µg/mL
MIC (Staphylococcus aureus [30]): ≤ 0.03 µg/mL
MIC (Staphylococcus aureus [31]): ≤ 0.03 µg/mL
MIC (Staphylococcus aureus [32]): ≤ 0.03 µg/mL
MIC (Staphylococcus aureus [33]): ≤ 0.03 µg/mL
MIC (Staphylococcus aureus [34]): ≤ 0.03 µg/mL
MIC (Staphylococcus aureus [35]): < 0.03 µg/mL

Oc1ccc(-c2nc(-c3ccc(Oc4ccc(C(F)(F)F)cc4)cc3)no2)cc1
MIC (Staphylococcus aureus [36]): 2 µg/mL (≈ 5.02 µM)
MIC (Staphylococcus aureus [37]): 2 µg/mL (≈ 5.02 µM)
MIC (Staphylococcus aureus [38]): 2 µg/mL (≈ 5.02 µM)
MIC (Staphylococcus aureus [39]): 2 µg/mL (≈ 5.02 µM)
MIC (Staphylococcus aureus [40]): 2 µg/mL (≈ 5.02 µM)
MIC (Staphylococcus aureus [41]): 2 µg/mL (≈ 5.02 µM)
MIC (Staphylococcus aureus [42]): 2 µg/mL (≈ 5.02 µM)
bioavailability [43]: 100%
half-life [44]: 40 h
